In the NIST ThermoML archive (doi:10.1021/je900732r):
“And” between values parts separate entries of the source, which are not always exact repeats. Equal entries are not always repeated. Numbers after ± are expanded uncertainties.

Assays:
[1] = Liquid; for mass density: 101 kPa
[2] = mn = molality of the nth substance listed, in mol/kg; details: 101 kPa, Liquid

C[S+](C)[O-] [dimethyl sulfoxide]
[1]
Details | mass density
293.15 K | 1100.22 ± 0.56 kg/m3 and 1100.23 ± 0.56 kg/m3
298.15 K | 1095.19 ± 0.55 kg/m3 and 1095.2 ± 0.56 kg/m3
303.15 K | 1090.17 ± 0.54 kg/m3 and 1090.18 ± 0.54 kg/m3
313.15 K | 1080.12 ± 0.52 kg/m3 and 1080.12 ± 0.53 kg/m3
323.15 K | 1070.08 ± 0.5 kg/m3 and 1070.08 ± 0.51 kg/m3
333.15 K | 1060.04 ± 0.49 kg/m3 and 1060.03 ± 0.49 kg/m3

CO [methanol]
[1]
Details | mass density
283.15 K | 800.55 ± 0.48 kg/m3 and 800.541 ± 0.48 kg/m3 and 800.548 ± 0.5 kg/m3
288.15 K | 795.872 ± 0.49 kg/m3 and 795.866 ± 0.49 kg/m3 and 795.857 ± 0.51 kg/m3
293.15 K | 791.172 ± 0.5 kg/m3 and 791.169 ± 0.5 kg/m3 and 791.162 ± 0.51 kg/m3
298.15 K | 786.46 ± 0.51 kg/m3 and 786.452 ± 0.52 kg/m3 and 786.464 ± 0.5 kg/m3
303.15 K | 781.742 ± 0.51 kg/m3 and 781.733 ± 0.51 kg/m3 and 781.722 ± 0.52 kg/m3
308.15 K | 776.992 ± 0.52 kg/m3 and 776.979 ± 0.52 kg/m3 and 776.978 ± 0.53 kg/m3
313.15 K | 772.214 ± 0.52 kg/m3 and 772.189 ± 0.53 kg/m3 and 772.2 ± 0.54 kg/m3

Details | speed of sound [m/s]
[1], 298.15 K, 101.33 kPa, Pulse-echo method | 1101.2 ± 0.77

[Ni+2].[O-][Cl+3]([O-])([O-])[O-].[O-][Cl+3]([O-])([O-])[O-] [nickel perchlorate] + C[S+](C)[O-]
mass density [kg/m3], [2]
Details | 293.15 K | 298.15 K | 303.15 K | 313.15 K | 323.15 K | 333.15 K
m1 = 0.01259 | 1102.91 ± 0.57 | 1097.89 ± 0.56 | 1092.88 ± 0.55 | 1082.85 ± 0.53 | 1072.82 ± 0.52 | 1062.8 ± 0.5
m1 = 0.01738 | 1103.94 ± 0.57 | 1098.92 ± 0.56 | 1093.91 ± 0.55 | 1083.88 ± 0.54 | 1073.87 ± 0.52 | 1063.85 ± 0.5
m1 = 0.02515 | 1105.61 ± 0.57 | 1100.6 ± 0.57 | 1095.59 ± 0.56 | 1085.57 ± 0.54 | 1075.56 ± 0.52 | 1065.56 ± 0.5
m1 = 0.03153 | 1106.98 ± 0.58 | 1101.97 ± 0.57 | 1096.96 ± 0.56 | 1086.96 ± 0.54 | 1076.96 ± 0.53 | 1066.96 ± 0.51
m1 = 0.03816 | 1108.41 ± 0.58 | 1103.4 ± 0.57 | 1098.4 ± 0.56 | 1088.4 ± 0.55 | 1078.41 ± 0.53 | 1068.42 ± 0.51
m1 = 0.051 | 1111.18 ± 0.59 | 1106.18 ± 0.58 | 1101.18 ± 0.57 | 1091.2 ± 0.55 | 1081.23 ± 0.54 | 1071.27 ± 0.52
m1 = 0.06341 | 1113.88 ± 0.6 | 1108.88 ± 0.59 | 1103.89 ± 0.58 | 1093.92 ± 0.56 | 1083.97 ± 0.54 | 1074.01 ± 0.53
m1 = 0.07675 | 1116.78 ± 0.6 | 1111.79 ± 0.59 | 1106.81 ± 0.58 | 1096.86 ± 0.57 | 1086.92 ± 0.55 | 1076.99 ± 0.53
m1 = 0.08797 | 1119.23 ± 0.61 | 1114.24 ± 0.6 | 1109.27 ± 0.59 | 1099.34 ± 0.57 | 1089.42 ± 0.56 | 1079.5 ± 0.54
m1 = 0.1004 | 1121.96 ± 0.62 | 1116.98 ± 0.61 | 1112.02 ± 0.6 | 1102.1 ± 0.58 | 1092.19 ± 0.56 | 1082.3 ± 0.55
m1 = 0.1126 | 1124.63 ± 0.62 | 1119.67 ± 0.61 | 1114.7 ± 0.6 | 1104.8 ± 0.59 | 1094.91 ± 0.57 | 1085.03 ± 0.55
m1 = 0.1251 | 1127.4 ± 0.63 | 1122.43 ± 0.62 | 1117.49 ± 0.61 | 1107.6 ± 0.59 | 1097.73 ± 0.58 | 1087.86 ± 0.56

[O-][Cl+3]([O-])([O-])[O-].[O-][Cl+3]([O-])([O-])[O-].[Zn+2] [zinc perchlorate] + C[S+](C)[O-]
mass density [kg/m3], [2]
Details | 293.15 K | 298.15 K | 303.15 K | 313.15 K | 323.15 K | 333.15 K
m1 = 0.0168 | 1103.88 ± 0.57 | 1098.86 ± 0.56 | 1093.85 ± 0.55 | 1083.82 ± 0.54 | 1073.81 ± 0.52 | 1063.78 ± 0.5
m1 = 0.02409 | 1105.47 ± 0.58 | 1100.46 ± 0.57 | 1095.45 ± 0.56 | 1085.43 ± 0.54 | 1075.43 ± 0.52 | 1065.41 ± 0.51
m1 = 0.02918 | 1106.59 ± 0.58 | 1101.58 ± 0.57 | 1096.56 ± 0.56 | 1086.56 ± 0.54 | 1076.56 ± 0.53 | 1066.55 ± 0.51
m1 = 0.03465 | 1107.79 ± 0.58 | 1102.78 ± 0.57 | 1097.78 ± 0.56 | 1087.77 ± 0.55 | 1077.77 ± 0.53 | 1067.77 ± 0.51
m1 = 0.05104 | 1111.38 ± 0.59 | 1106.39 ± 0.58 | 1101.39 ± 0.57 | 1091.4 ± 0.56 | 1081.43 ± 0.54 | 1071.45 ± 0.52
m1 = 0.06794 | 1115.12 ± 0.6 | 1110.13 ± 0.59 | 1105.14 ± 0.58 | 1095.18 ± 0.56 | 1085.22 ± 0.55 | 1075.26 ± 0.53
m1 = 0.08574 | 1119.08 ± 0.61 | 1114.1 ± 0.6 | 1109.12 ± 0.59 | 1099.17 ± 0.57 | 1089.23 ± 0.56 | 1079.3 ± 0.54
m1 = 0.1022 | 1122.78 ± 0.62 | 1117.8 ± 0.61 | 1112.83 ± 0.6 | 1102.91 ± 0.58 | 1092.99 ± 0.57 | 1083.08 ± 0.55
m1 = 0.119 | 1126.55 ± 0.63 | 1121.58 ± 0.62 | 1116.62 ± 0.61 | 1106.7 ± 0.59 | 1096.8 ± 0.57 | 1086.9 ± 0.56
m1 = 0.1435 | 1132.09 ± 0.64 | 1127.14 ± 0.64 | 1122.19 ± 0.63 | 1112.3 ± 0.61 | 1102.43 ± 0.59 | 1092.57 ± 0.57
m1 = 0.1684 | 1137.8 ± 0.66 | 1132.85 ± 0.65 | 1127.91 ± 0.64 | 1118.05 ± 0.62 | 1108.21 ± 0.6 | 1098.37 ± 0.59
